≈ marks a conversion by molar mass, not a printed value. Where “and” joins values, the source holds several entries; their conditions need not be identical. Equal entries are not always repeated.
What was measured:
Trypanosoma cruzi [1] = experiment: Inhibitory concentration against trypomastigotes (Y strain) of Trypanosoma cruzi; Inactive; format: functional, organism-based
Trypanosoma cruzi [2] = experiment: Inhibitory concentration against epimastigotes (Tulahuen strain) of Trypanosoma cruzi; Inactive; format: functional, organism-based
Trypanosoma cruzi [3] = experiment: Inhibitory concentration against Trypomastigotes (Y strain) of Trypanosoma cruzi; format: functional, organism-based
Trypanosoma cruzi [4] = experiment: Inhibitory concentration against Epimastigotes (Tulahuen strain) of Trypanosoma cruzi; format: functional, organism-based
[5] = Ratio of inhibitory concentration to that of reference drug was determined; format: functional
[6] = Trypanosoma cruzi, read-out: IC50

| Compound | IC50 (Trypanosoma cruzi [1]) | IC50 (Trypanosoma cruzi [2]) | other results |
| --- | --- | --- | --- |
| Cn1nc(Cc2ccccc2)c2ccccc2c1=O | > 100 mg/L | > 100 mg/L | – |
| COc1ccc(CC(=O)c2ccccc2C(=O)N2CCCCC2)cc1OC | > 100 mg/L | > 100 mg/L | – |
| COc1ccc(/C=C2\OC(=O)c3ccccc32)cc1 | > 100 mg/L | > 100 mg/L | – |
| COc1cc(C(=O)C(=O)c2ccccc2C(=O)N2CCCCC2)cc(OC)c1OC | > 100 mg/L | – | – |
| OC1(Cc2ccccc2)c2ccccc2C2=NCCCN21 (stereo unspecified) | > 100 mg/L | – | – |
| CN(C)c1ccc(C(=C2C=CC(=[N+](C)C)C=C2)c2ccc(N(C)C)cc2)cc1.[Cl-] [GENTIAN VIOLET] | – | – | IC50 (Trypanosoma cruzi [3]; [6]): 100 µg/mL and 245 µM |
| O=C1O/C(=C\c2ccccc2)c2ccccc21 | > 100 mg/L | 45 mg/L (≈ 202 µM) | – |
| O=C(C(=O)c1ccccc1C(=O)N1CCCCC1)c1ccc2c(c1)OCO2 | > 100 mg/L | > 100 mg/L | – |
| O=c1[nH]nc(Cc2ccccc2)c2ccccc12 | > 100 mg/L | > 100 mg/L | – |
| O=C(Cc1ccc2c(c1)OCO2)c1ccccc1C(=O)N1CCCCC1 | > 100 mg/L | > 100 mg/L | – |
| COc1ccc(CCc2cc(OC(C)=O)cc(OC)c2C(=O)O)cc1 | > 100 mg/L | > 100 mg/L | – |
| COc1ccc(Cc2nnc(O)c3ccccc23)cc1 | > 100 mg/L | > 100 mg/L | – |
| COc1ccc(CCc2cc(O)cc(OC)c2C(=O)N2CCCCC2)cc1 | – | – | IC50 (Trypanosoma cruzi [4]): 30 µg/mL and 81.3 µM; IC50 (Trypanosoma cruzi [3]): 12 µg/mL and 33 µg/mL |
| O=C1O/C(=C\c2ccc(Cl)cc2)c2ccccc21 | > 100 mg/L | > 100 mg/L | – |
| COc1ccc(CCc2cc(O)cc(OC)c2C(=O)O)cc1 [ISONOTHOLAENIC ACID] | > 100 mg/L | – | – |
| COc1cc(Cc2nnc(O)c3ccccc23)cc(OC)c1OC | > 100 mg/L | > 100 mg/L | – |
| OC1(Cc2ccc3c(c2)OCO3)c2ccccc2C2=NCCN21 (stereo unspecified) | > 100 mg/L | > 100 mg/L | – |
| OC1(Cc2ccc3c(c2)OCO3)c2ccccc2C2=NCCCN21 (stereo unspecified) | > 100 mg/L | > 100 mg/L | – |
| O=C1O/C(=C\c2ccc3c(c2)OCO3)c2ccccc21 | > 100 mg/L | > 100 mg/L | – |
| COc1ccc(CC(=O)c2ccccc2C(=O)N2CCCCC2)cc1 | > 100 mg/L | > 100 mg/L | – |
| COc1ccc(Cc2nn(C)c(=O)c3ccccc23)cc1 | > 100 mg/L | > 100 mg/L | – |
| Oc1nnc(Cc2ccc3c(c2)OCO3)c2ccccc12 | > 100 mg/L | > 100 mg/L | – |
| COc1ccc(/C=C2\OC(=O)c3ccccc32)cc1OC | > 100 mg/L | > 100 mg/L | – |
| COc1ccc(CC2(O)c3ccccc3C3=NCCN32)cc1 (stereo unspecified) | > 100 mg/L | – | – |
| COc1ccc(CC2(O)c3ccccc3C3=NCCCN32)cc1OC (stereo unspecified) | > 100 mg/L | > 100 mg/L | – |
| O=C(Cc1ccc(Cl)cc1)c1ccccc1C(=O)N1CCCCC1 | > 100 mg/L | > 100 mg/L | – |

| Compound | IC50 (Trypanosoma cruzi [1]) | IC50 (Trypanosoma cruzi [2]) | other results |
| --- | --- | --- | --- |
| COc1cc(CC2(O)c3ccccc3C3=NCCCN32)cc(OC)c1OC (stereo unspecified) | > 100 mg/L | > 100 mg/L | – |
| OC1(Cc2ccc(Cl)cc2)c2ccccc2C2=NCCCN21 (stereo unspecified) | > 100 mg/L | – | – |
| COc1ccc(C(=O)C(=O)c2ccccc2C(=O)N2CCCCC2)cc1 | > 100 mg/L | > 100 mg/L | – |
| OC1(Cc2ccc(Cl)cc2)c2ccccc2C2=NCCN21 (stereo unspecified) | 2.3 mg/L (≈ 7.7 µM) | 10 mg/L (≈ 33.5 µM) | IC50 (Trypanosoma cruzi [4]): 33.6 µM; IC50 (Trypanosoma cruzi [3]; [6]): 7.9 µM |
| COc1cc(CC2(O)c3ccccc3C3=NCCN32)cc(OC)c1OC (stereo unspecified) | > 100 mg/L | > 100 mg/L | – |
| Cn1nc(Cc2ccc(Cl)cc2)c2ccccc2c1=O | > 100 mg/L | > 100 mg/L | – |
| COc1cc(Cc2nn(C)c(=O)c3ccccc23)cc(OC)c1OC | > 100 mg/L | > 100 mg/L | – |
| Cn1nc(Cc2ccc3c(c2)OCO3)c2ccccc2c1=O | > 100 mg/L | > 100 mg/L | – |
| COc1ccc(CCc2cc(O)cc(OC)c2)cc1 | > 100 mg/L | > 100 mg/L | – |
| O=C(C(=O)c1ccccc1C(=O)N1CCCCC1)c1ccc(Cl)cc1 | > 100 mg/L | > 100 mg/L | – |
| OC1(Cc2ccccc2)c2ccccc2C2=NCCN21 (stereo unspecified) | > 100 mg/L | – | – |
| COc1ccc(C(=O)C(=O)c2ccccc2C(=O)N2CCCCC2)cc1OC | > 100 mg/L | > 100 mg/L | – |
| COc1ccc(Cc2nn(C)c(=O)c3ccccc23)cc1OC | > 100 mg/L | > 100 mg/L | – |
| CCNC(=O)c1ccccc1C(=O)C(=O)c1ccc(OC)cc1 | > 100 mg/L | > 100 mg/L | – |
| COc1cc(/C=C2\OC(=O)c3ccccc32)cc(OC)c1OC | > 100 mg/L | > 100 mg/L | – |
| COc1ccc(CC2(O)c3ccccc3C3=NCCCN32)cc1 (stereo unspecified) | > 100 mg/L | > 100 mg/L | – |
| COc1ccc(CC2(O)c3ccccc3C3=NCCN32)cc1OC (stereo unspecified) | > 100 mg/L | > 100 mg/L | – |
| O=C(Cc1ccccc1)c1ccccc1C(=O)N1CCCCC1 | > 100 mg/L | > 100 mg/L | – |
| COC(=O)c1c(CCc2ccc(OC)cc2)cc(O)cc1OC | > 100 mg/L | > 100 mg/L | – |
| COc1cc(CC(=O)c2ccccc2C(=O)N2CCCCC2)cc(OC)c1OC | > 100 mg/L | – | – |
| Oc1nnc(Cc2ccc(Cl)cc2)c2ccccc12 | > 100 mg/L | > 100 mg/L | – |
| COc1ccc(C(=O)C(=O)c2ccccc2C(=O)N2CCCC2)cc1 | > 100 mg/L | > 100 mg/L | – |
| COc1ccc(Cc2nnc(O)c3ccccc23)cc1OC | > 100 mg/L | > 100 mg/L | – |
| O=C(C(=O)c1ccccc1C(=O)N1CCCCC1)c1ccccc1 | > 100 mg/L | > 100 mg/L | – |
| O=C(Cn1ccnc1[N+](=O)[O-])NCc1ccccc1 [BENZNIDAZOLE] | – | – | IC50 (Trypanosoma cruzi [4]): 7.4 µg/mL and 30 µM; Ratio [5]: 1 |

Reference: ChEMBL document CHEMBL1133815, “Anti-Trypanosoma activity of some natural stilbenoids and synthetic related heterocyclic compounds” (Bioorg Med Chem Lett, 2001)
